In patent publication EP4289427A1, “DIHYDRO[1,8]NAPHTHYRIDIN-7-ONE AND PYRIDO[3,2-B][1,4]OXAZIN-3-ONE FOR USE IN TREATING CANCER, AND METASTASES IN PARTICULAR” (Anagenesis Biotechnologies, priority 2022, dated 2023):

Key:
EoL-1 cells = experiment: Cytotoxicity assay (CellTiter-Glo 2.0) on EoL-1 cells; type: cell-based, Human; settings: incubation 1 day; for IC50: Homo sapiens, EOL1, 24 h
How it was run: (§1)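 Compound-treated cells, incubation time varying by line; CellTiter-Glo 2.0 ATP luminescence; relative IC50.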

4T1 cells [1] = experiment: Cytotoxicity assay (CellTiter-Glo 2.0) on 4T1 cells; type: cell-based, Mouse; settings: incubation 2 days; for IC50: Mus musculus, 48 h
How it was run: as §1

MDA-MB-231 cells [2] = experiment: Cytotoxicity assay (CellTiter-Glo 2.0) on MDA-MB-231 cells; type: cell-based, Human; settings: incubation 3 days; for IC50: Homo sapiens, 72 h
How it was run: as §1

RD cells [3] = experiment: Differentiation of RD cells into myotubes (alpha-actinin staining); type: cell-based, Human; settings: 7 days, Figure 3
Method: RD cells are cancer cells of muscle origin that arose from myogenic precursors that fail to complete muscle differentiation. One strategy to stop their progression is to differentiate them into myotubes.
To allow differentiation, RD cells were seeded at a density of 3500 cells/well in a 384-well plate coated with collagen type I, in DMEM (4,5g/L glucose) with L-Gln (cat.no. 41965-039 from Gibco) supplemented with 5% of knockout serum replacement (cat.no. 10828-028 from Gibco), 1% PenStrep (Gibco), 1% MEM NEAA (Gibco) and 0.1 mM 2-mercaptoethanol (Gibco) (hereafter "K5 medium"). Compounds to be tested were then added onto the cells and incubated for 7 days at 37°C. On day 7, cells were fixed with 4% paraformaldehyde solution and immunostained for α-actinin (cat.no. EA-53 from Sigma, at 1/30000).

HUVECs = experiment: Tube formation assay (anti-angiogenic activity); type: cell-based, human; settings: for IC50: Homo sapiens, HUVEC
How it was run: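 HUVECs plated at 5000 cells/well on reduced growth factor basement membrane matrix, then exposed to compounds for 16 to 18 hours at 37°C. Cells stained with calcein-AM; tube networks imaged by confocal fluorescence microscopy and quantified.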

RD cells [4] = experiment: Cytotoxicity assay (CellTiter-Glo 2.0) on RD cells; type: cell-based, Human; settings: for IC50: Homo sapiens
How it was run: as §1

4T1 cells [5] = experiment: Epithelial-mesenchymal transition marker expression by qRT-PCR; type: cell-based, Mouse; design: key: ↗: increased expression; ↘: decreased expression; =: unchanged expression levels; settings: 24 hours, expression normalized against RPL13
From the text: The epithelial-mesenchymal transition (hereafter "EMT") is a process by which epithelial cells lose their cell polarity and cell-cell adhesion while gaining migratory and invasive properties to become mesenchymal stem cells. EMT is commonly measured by quantifying both epithelial and mesenchymal marker's expression by quantitative reverse-transcription polymerase chain reaction (hereafter "qRT-PCR"). EMT inhibition is observed when epithelial markers are stable or increased while mesenchymal markers are decreased.
4T1 cells were treated with compounds to be tested or DMSO for 24 hours. 4T1 cells were then harvested directly in NucleoZol lysis buffer (cat. no. 740404.200 from Macherey-Nagel), according to the manufacturer's instructions. Total RNA was extracted using the NucleoSpin RNA set for NucleoZol (cat. no. 740406.50 from Macherey-Nagel). The quantity and purity of RNA was determined using a Quickdrop (Molecular Devices). RT-PCR was performed on 500 ng total RNA using iScript gDNA clear cDNA synthesis Kit (cat.no. 1725035 from Biorad). The qPCR was run on a QuantStudio 5 real time thermocycler (Applied Biosystems), with PowerUp SYBR Green Master Mix (cat.no. A25742 from Fisher Scientific) and the primers listed in Table 16.
Expression data of EMT markers have been normalized against expression data of the housekeeping gene RPL13.

MDA-MB-231 cells [6] = experiment: Scratch (wound healing) assay, cell migration; type: cell-based, Human; settings: 24 hours, Figure 1
Method: Cell migration is involved in several pathological cancer processes such as tumor invasion, neoangiogenesis and metastasis. Scratch (or wound healing) assay is a method to study two-dimensional cell migration in vitro. It is based on the observation that cells growing in a monolayer migrate to reestablish cell contacts after a mechanical scratch wound.
The MDA-MB-231 cells were seeded into a 24-well plate and grown to confluent density. A scrape was made in each well using a pipette tip. Then, the cells monolayers were incubated for 2 hours with 5 µg/ml mitomycin C to stop cell proliferation. The cells were treated with the compounds to be tested for 24 hours. The cells were stained using CellMask Green actin tracking stain (cat.no. A57246 from Fisher Scientific) at time zero and at endpoint. Pictures were acquired using a fluorescence microscope (IXM from Molecular Device). The scratch area was measured with the ImageJ software. The recovery of the scratch area was calculated as a percentage of the scratch area at time zero.

[7] = 2 day-treatment, commercial kinase inhibitors
[8] = 4 day-treatment, commercial kinase inhibitors
[9] = 48 h, 2 day-treatment, commercial kinase inhibitors
[10] = 96 h, 4 day-treatment, commercial kinase inhibitors

Structure (SMILES)	IC50 (EoL-1 cells) [nM]	Cytotoxicity (EoL-1 cells)	IC50 (4T1 cells [1]) [nM]	Cytotoxicity (4T1 cells [1])	IC50 (MDA-MB-231 cells [2]) [µM]	Cytotoxicity (MDA-MB-231 cells [2])	IC50 (HUVECs; incubation 16 to 18 hours) [nM]	Angiogenesis inhibition (HUVECs; incubation 16 to 18 hours)	Cytotoxicity (RD cells [4]; 2 day-treatment)	Cytotoxicity (RD cells [4]; 4 day-treatment)	IC50 (RD cells [4]; 48 h, 2 day-treatment) [µM]	IC50 (RD cells [4]; 96 h, 4 day-treatment) [µM]	also measured
CSc1cc(Oc2ccnc3c2CCC(=O)N3)ccc1NC(=O)Nc1cc(C(C)(C)C)nn1-c1cccc(F)c1 [Compound 013, 1-[5-tert-butyl-2-(3-fluorophenyl)pyrazol-3-yl]-3-[2-methylsulfanyl-4-[(7-oxo-6,8-dihydro-5H-1,8-naphthyridin-4-yl)oxy]phenyl]urea]	1 to 10	+++ (cytotoxicity ≥ 85%)	< 1000	+++ (cytotoxicity ≥ 85%)	1 to 5	++ (50% ≤ cytotoxicity < 85%)	< 100	+++ (angiogenesis inhibition ≥ 80%)	++ (50% ≤ cytotoxicity < 85%)	++ (50% ≤ cytotoxicity < 85%)	1 to 5	5 to 10	differentiation into myotubes (RD cells [3]): dose-dependent differentiation into myotubes
CC(C)(C)c1cc(NC(=O)Nc2ccc(Oc3ccnc4c3CCC(=O)N4)cc2C(F)(F)F)on1 [Compound 023, 1-(3-tert-butylisoxazol-5-yl)-3-[4-[(7-oxo-6,8-dihydro-5H-1,8-naphthyridin-4-yl)oxy]-2-(trifluoromethyl)phenyl]urea]	1 to 10	+++ (cytotoxicity ≥ 85%)	1000 to 5000	+++ (cytotoxicity ≥ 85%)	1 to 5	++ (50% ≤ cytotoxicity < 85%)	100 to 500	+++ (angiogenesis inhibition ≥ 80%)	++ (50% ≤ cytotoxicity < 85%)	++ (50% ≤ cytotoxicity < 85%)	1 to 5	1 to 5	Epithelial markers E-cadherin (4T1 cells [5]): ↗; Epithelial markers EpCAM (4T1 cells [5]): =; Mesenchymal markers Fibronectin (4T1 cells [5]): ↘; Mesenchymal markers Vimentin (4T1 cells [5]): ↘
CSc1cc(Oc2ccnc3c2CCC(=O)N3)ccc1NC(=O)Nc1cc(C(C)(C)C)nn1-c1cncc(F)c1 [Compound 027, 1-[5-tert-butyl-2-(5-fluoro-3-pyridyl)pyrazol-3-yl]-3-[2-methylsulfanyl-4-[(7-oxo-6,8-dihydro-5H-1,8-naphthyridin-4-yl)oxy]phenyl]urea]	1 to 10	+++ (cytotoxicity ≥ 85%)	< 1000	+++ (cytotoxicity ≥ 85%)	< 1	++ (50% ≤ cytotoxicity < 85%)	< 100	+++ (angiogenesis inhibition ≥ 80%)	++ (50% ≤ cytotoxicity < 85%)	++ (50% ≤ cytotoxicity < 85%)	1 to 5	1 to 5	Epithelial markers E-cadherin (4T1 cells [5]): ↗; Epithelial markers EpCAM (4T1 cells [5]): =; Mesenchymal markers Fibronectin (4T1 cells [5]): ↘; Mesenchymal markers Vimentin (4T1 cells [5]): ↘
Cc1ccc(-n2nc(C(C)(C)C)cc2NC(=O)Nc2ccc(Oc3ccnc4c3OCC(=O)N4)cc2C(F)(F)F)cn1 [Compound 040, 1-[5-tert-butyl-2-(6-methyl-3-pyridyl)pyrazol-3-yl]-3-[4-[(3-oxo-4H-pyrido[3,2-b][1,4]oxazin-8-yl)oxy]-2-(trifluoromethyl)phenyl]urea]	10 to 100	++ (50% ≤ cytotoxicity < 85%)	< 1000	+++ (cytotoxicity ≥ 85%)	1 to 5	++ (50% ≤ cytotoxicity < 85%)	100 to 500	+++ (angiogenesis inhibition ≥ 80%)	++ (50% ≤ cytotoxicity < 85%)	++ (50% ≤ cytotoxicity < 85%)	5 to 10	5 to 10	migration in the scratch assay (MDA-MB-231 cells [6]): inhibition of their migration
CSc1cc(Oc2ccnc3c2OCC(=O)N3)ccc1NC(=O)Nc1cc(C(C)(C)C)nn1-c1ccc(CCN2CCOCC2)cc1 [Compound 052, 1-[5-tert-butyl-2-[4-[2-(morpholino)ethyl]phenyl]pyrazol-3-yl]-3-[2-methylsulfanyl-4-[(3-oxo-4H-pyrido[3,2-b][1,4]oxazin-8-yl)oxy]phenyl]urea]	1 to 10	+++ (cytotoxicity ≥ 85%)	< 1000	+++ (cytotoxicity ≥ 85%)	1 to 5	+++ (cytotoxicity ≥ 85%)	< 100	+++ (angiogenesis inhibition ≥ 80%)	++ (50% ≤ cytotoxicity < 85%)	++ (50% ≤ cytotoxicity < 85%)	1 to 5	1 to 5	–
CSc1cc(Oc2ccnc3c2OCC(=O)N3)ccc1NC(=O)Nc1cc(C(C)(C)C)nn1-c1ccc(CN2CCN(C)CC2)cc1 [Compound 054, 1-[5-tert-butyl-2-[4-[(4-methylpiperazin-1-yl)methyl]phenyl]pyrazol-3-yl]-3-[2-methylsulfanyl-4-[(3-oxo-4H-pyrido[3,2-b][1,4]oxazin-8-yl)oxy]phenyl]urea]	1 to 10	+++ (cytotoxicity ≥ 85%)	1000 to 5000	+++ (cytotoxicity ≥ 85%)	1 to 5	+++ (cytotoxicity ≥ 85%)	< 100	+++ (angiogenesis inhibition ≥ 80%)	+++ (cytotoxicity ≥ 85%)	+++ (cytotoxicity ≥ 85%)	1 to 5	1 to 5	–
CNC(=O)c1cc(Oc2ccc(NC(=O)Nc3ccc(Cl)c(C(F)(F)F)c3)c(F)c2)ccn1 [Regorafenib, reference compound]	–	–	–	–	–	–	–	–	–	–	–	–	IC50 (EoL-1 cells; commercial kinase inhibitors): 1 to 10 nM; Cytotoxicity (EoL-1 cells; commercial kinase inhibitors): +++ (cytotoxicity ≥ 85%); IC50 (4T1 cells [1]; commercial kinase inhibitors): 5000 to 10000 nM; Cytotoxicity (4T1 cells [1]; commercial kinase inhibitors): ++ (50 % ≤ cytotoxicity < 85 %); IC50 (MDA-MB-231 cells [2]; commercial kinase inhibitors): 1 to 5 µM; Cytotoxicity (MDA-MB-231 cells [2]; commercial kinase inhibitors): ++ (50 % ≤ cytotoxicity < 85 %); IC50 (HUVECs; commercial kinase inhibitors): < 100 nM; Angiogenesis inhibition (HUVECs; commercial kinase inhibitors): ++ (80% > angiogenesis inhibition ≥ 50%); Cytotoxicity (RD cells [4]; [7]): + (20 % ≤ cytotoxicity < 50 %); Cytotoxicity (RD cells [4]; [8]): + (20 % ≤ cytotoxicity < 50 %); IC50 (RD cells [4]; [9]): 5 to 10 µM; IC50 (RD cells [4]; [10]): 1 to 5 µM
CNC(=O)c1cc(Oc2ccc(NC(=O)Nc3ccc(Cl)c(C(F)(F)F)c3)cc2)ccn1 [Sorafenib, reference compound]	–	–	–	–	–	–	–	–	–	–	–	–	IC50 (EoL-1 cells; commercial kinase inhibitors): < 1 nM; Cytotoxicity (EoL-1 cells; commercial kinase inhibitors): +++ (cytotoxicity ≥ 85%); IC50 (4T1 cells [1]; commercial kinase inhibitors): 5000 to 10000 nM; Cytotoxicity (4T1 cells [1]; commercial kinase inhibitors): + (20 % ≤ cytotoxicity < 50 %); IC50 (MDA-MB-231 cells [2]; commercial kinase inhibitors): 5 to 10 µM; Cytotoxicity (MDA-MB-231 cells [2]; commercial kinase inhibitors): +++ (cytotoxicity ≥ 85 %); IC50 (HUVECs; commercial kinase inhibitors): < 100 nM; Angiogenesis inhibition (HUVECs; commercial kinase inhibitors): + (50% > angiogenesis inhibition ≥ 20%); Cytotoxicity (RD cells [4]; [7]): ++ (50 % ≤ cytotoxicity < 85 %); Cytotoxicity (RD cells [4]; [8]): ++ (50 % ≤ cytotoxicity < 85 %); IC50 (RD cells [4]; [9]): ≥ 10 µM; IC50 (RD cells [4]; [10]): 5 to 10 µM
